{
  "source": "paper PMC9181852",
  "about": "“In Vivo and In Vitro Biological Evaluation and Molecular Docking Studies of Compounds Isolated from Micromeria biflora (Buch. Ham. ex D.Don) Benth” (Molecules, 2022)",
  "key": {"[1]": {"experiment": "Traction muscle relaxation model", "type": "in vivo, mice (Balb/c)", "details": "dose 1 mg/kg", "experimental": "(§1) Healthy mice (Balb/c) with weight ranging from 20 to 22 g and ages 9 to 10 weeks were used in this screening model. The grown animals were provided with standard laboratory conditions such as standard food and water ad libitum. The in vivo biological screening test was performed at the Department of Veterinary Medicine, College of Agriculture and Veterinary Medicine, Qassim University Buraydah, Saudi Arabia, as well as Swabi University, KP, Pakistan, according to published procedures.\nA traction screening model was adapted to identify the relaxation of muscle for salicylalazine isolated from M. biflora according to the standard method. The traction model was considered by using metallic wires covered with rubber, and then the wires were linked with each other using a stand around 60 cm upstairs of the lab bench. The animals were distributed into different groups, with each group comprising six animals (n = 6). The various groups of animals were administered water, diazepam, and salicylalazine at different doses. After administration, all groups of animals were subjected to traction screening after 30, 60, and 90 min. […] Traction testing was repeatedly performed to calculate the muscle relaxant ability of salicylalazine as per the reported method."}, "[2]": {"experiment": "Inclined plane muscle relaxation model", "type": "in vivo, mice (Balb/c)", "details": "dose 1 mg/kg", "experimental": "as §1\nAn inclined plane screening procedure was adapted to identify the muscle relaxation effects of salicylalazine isolated from M. biflora according to a reported procedure. The inclined plane used in screening contained two plywood boards, and these boards were connected, where one board was at 60 0 from the base while the other one was aligned from the base. Various groups of animals were distributed into several groups; each group comprised six animals (n = 6). Animals in each group were administered water (10 mL/kg), standard drug (diazepam, 1 mg/kg), and salicylalazine at different doses of 2.5, 5, 10, 15, and 20 mg/kg, i.p. After various time intervals, such as 30, 60, and 90 min post-administration, animals were allowed on the higher part of the inclined plane for 30 s to drop or hang."}, "[3]": {"experiment": "Open field sedative test", "type": "in vivo, mice (Balb/c)", "details": "dose 0.5 mg/kg, 30 min after administration", "experimental": "as §1\nThe sedative potential of salicylalazine isolated from M. biflora was assessed as per the reported procedure. The animals were divided into different groups, as designated above. The apparatuses used in this screening contained an area of white wood with a 150 cm diameter bordered by stainless steel walls and was separated into 19 squares by black lines. Then, the open field apparatus was positioned inside the light and sound-reduced room. The different groups of animals were administered distilled water, diazepam, and salicylalazine at different doses. Thirty minutes after administration, all groups of animals were permitted to move from the center of the design box. […] Statistical calculations were performed by counting the number of lines crossed by every animal."}, "[4]": {"system": "A498", "experiment": "Anticancer MTT assay, A498", "type": "cell-based", "details": "Homo sapiens, 24 h", "experimental": "(§2) The MTT assay was used to assess the cytotoxicity of salicylalazine isolated from M. biflora as per the previously documented method. For the MTT assay, Gibco BRL was combined with 100 µg/mL of penicillin sodium salts, 10% FBS (Gibco), and sodium carbonate (2 mg/mL). The prepared medium was used to keep three human cancer cell lines: human hepatoma (HepG2), human A498, and renal NCI-h226 non-small cell lung). Mouse hepatocytes, including HepG2 and HepG-R, were planted in 96-well plates. The cell lines were preserved with salicylalazine (1.5–100 μM), hatched for 24 h, and then they were tracked using the MTT procedure^14. This method was used for all tested cell lines. The IC50 value of salicylalazine in different cell lines was calculated from the concentration-effect curves. The standard drug used in this experiment was paclitaxel."}, "[5]": {"system": "HepG2", "experiment": "Anticancer MTT assay, HepG2", "type": "cell-based", "details": "Homo sapiens, 24 h", "experimental": "as §2"}, "[6]": {"system": "MDR2780AD", "experiment": "Anticancer MTT assay, MDR2780AD", "type": "cell-based", "details": "24 h"}, "[7]": {"system": "NCI-H226", "experiment": "Anticancer MTT assay, NCI-H226", "type": "cell-based", "details": "Homo sapiens, 24 h", "experimental": "as §2"}, "[8]": {"experiment": "Hot plate analgesic test", "type": "in vivo, mice (Balb/c)", "details": "dose 10 mg/kg", "experimental": "as §1\nThe analgesic effect of salicylalazine isolated from M. biflora was obtained with help of a hot plate according to the published method. The animals were distributed into different groups according to the previously reported method. A preliminary screening test was performed on the animals using a hot plate (Harvard apparatus) sustained at 55 ± 2 °C. […] Group I (positive control) was administered with the standard drug, while Group II (negative control) was administered with normal saline. The other groups of animals were administered with 2.5, 5, 10, 15, and 20 mg/kg (PO). […] To avoid tissue damage, a cut-off time of 30 s was used for every animal. The latency time was recorded for all groups (n = 6) at consistent intervals (30, 60, 90, and 120 min)."}},
  "data": [
    {"smiles": "CN1C(=O)CN=C(c2ccccc2)c2cc(Cl)ccc21", "note": "[Diazepam, reference compound]", "values": [
      {"measurement": "Traction Test (%)", "setting": "[1]; 30 min", "result": "100 ± 0.00", "unit": "%"},
      {"measurement": "Traction Test (%)", "setting": "[1]; 60 min", "result": "100 ± 0.00", "unit": "%"},
      {"measurement": "Traction Test (%)", "setting": "[1]; 90 min", "result": "100 ± 0.00", "unit": "%"},
      {"measurement": "Inclined Plane Test (%)", "setting": "[2]; 30 min", "result": "100 ± 0.00", "unit": "%"},
      {"measurement": "Inclined Plane Test (%)", "setting": "[2]; 60 min", "result": "100 ± 0.00", "unit": "%"},
      {"measurement": "Inclined Plane Test (%)", "setting": "[2]; 90 min", "result": "100 ± 0.00", "unit": "%"},
      {"measurement": "No of Lines Crossed", "setting": "[3]", "result": "9.01 ± 0.51"}
    ]},
    {"smiles": "CC(=O)O[C@H]1C(=O)[C@@]2(C)[C@H]([C@H](OC(=O)c3ccccc3)[C@]3(O)C[C@H](OC(=O)[C@H](O)[C@@H](NC(=O)c4ccccc4)c4ccccc4)C(C)=C1C3(C)C)[C@]1(OC(C)=O)CO[C@@H]1C[C@@H]2O", "note": "[Paclitaxel, reference compound]", "values": [
      {"measurement": "IC50", "setting": "[4]", "result": "95.23 ± 0.23", "unit": "µM"},
      {"measurement": "IC50", "setting": "[5]", "result": "7.51 ± 0.3", "unit": "µM"},
      {"measurement": "IC50", "setting": "[6]", "result": "0.18 ± 0.008", "unit": "µM"},
      {"measurement": "IC50", "setting": "[7]", "result": "61.29 ± 0.31", "unit": "µM"}
    ]},
    {"smiles": "COc1cccc(C2(O)CCCCC2CN(C)C)c1", "note": "(stereo not drawn) [Tramadol, reference compound]", "values": [
      {"measurement": "Latency time on hot plate", "setting": "[8]; 30 min", "result": "24.30 ± 0.07", "unit": "s"},
      {"measurement": "Latency time on hot plate", "setting": "[8]; 60 min", "result": "25.90 ± 0.08", "unit": "s"},
      {"measurement": "Latency time on hot plate", "setting": "[8]; 90 min", "result": "24.80 ± 0.14", "unit": "s"},
      {"measurement": "Latency time on hot plate", "setting": "[8]; 120 min", "result": "24.68 ± 0.40", "unit": "s"}
    ]}
  ]
}
